Data published in patent US20250295628A1 (priority 2022, published 2025).
Marks after values point to notes of the source that are not given here.

Legend:
[1] = test system: rabbit VX2 liver tumor animal model; assay: Cisplatin plus composition 3-preparation in rabbit VX2 liver tumor model (Example 34); format: in vivo, New Zealand rabbits; conditions: cisplatin 4 mg/kg once a week alone, 4 weeks
Protocol: SPF grade New Zealand rabbits, 4-8 weeks old, 1.8-2.2 kg, with a standard diet and free access to water, were kept in an environment of 12-hour light/dark cycle with a constant temperature of (23±2° C.) and a humidity of (55±15%). The animals were anesthetized, guided by ultrasound, and VX2 hepatoma cells were introduced into the liver by minimally invasive approach, After monitoring New Zealand rabbits for 14 days, and tumor size was monitored with ultrasound; rabbits were randomly divided into 4 groups of 10 animals in each group according to tumor size and body weight, and drug treatment was started on day 15. Rabbits in the control group were intravenously injected with 0.9% sodium chloride injection through the ear vein. […] All New Zealand rabbits were treated for 4 weeks.
Tumor volume was estimated using the formula V=π(a×b^2)/6, where a and b were the longest and shortest diameters of the tumor measured using calipers. The weights of rabbits were monitored every 3-4 days during the experiment, and rabbited were sacrificed at the end of treatment; blood was collected, AST, ALT and CREA were tested, and the results are shown in Table 30. After anesthetizing each rabbit with Sutai 50+ tachypnosis 0.1 ml/kg, carotid artery phlebotomy was used as a termination procedure.

[2] = test system: lead poisoning model rats; assay: Therapeutic effect on lead poisoning in SD rats (Example 22); format: in vivo; conditions: EDTA 93.5 mg/kg, 4 weeks
Protocol: 30 SD rats with a body weight of 180˜200 g were taken; rats in the blank group freely drank deionized water containing 12.5 μL acetic acid for 3 weeks.
Rats in all groups were administrated once a day for 5 days/week for a total of 4 weeks. Rats in the blank group and model group were administered by intravenous drip with normal saline, and rats in treating groups were administered with normal saline solution of the corresponding drug; the administration volume of all groups was the same, with a dripping rate of 30 drops/min for a time of about 1 h, 1 time/day, 5 days/week; the grouping and administration dose of rats are shown in Table 14.

[3] = test system: arsenic poisoning model rats; assay: Therapeutic effect on arsenic poisoning in Wistar rats (Example 23); format: in vivo; conditions: EDTA 93.5 mg/kg
Protocol: 60 Wistar rats with a body weight of 180˜200 g were taken; rats in a blank group freely drank deionized water for 3 months; rats in arsenic poisoning groups freely drank an aqueous solution containing 100 mg/L·As2O3 for continuous 3 months, with a water mount of 20 ml per day, equivalent to an oral dose of 10 mg/kg, resulting in arsenic poisoning of drinking water-type in rats.
After successful molding, rats were divided to 10 rats in blank group and the remaining 50 rats. All groups were administrated once a day for 5 days/week for a total of 4 weeks. Rats in the blank group and the model group were administered by intravenous drip with normal saline, and rats in the treating group were administered with a normal saline solution of the corresponding drug; all groups had the same administration volume, a drip rate of 30 drops/min, and an dripping time of about 1 h, 1 time/d, 5 d/week, for a total of four weeks.
Urine was collected on day 1 and day 26, arsenic excretion was measured; blood and kidney of rats were taken 24 hours after the 26th day of administration, and blood arsenic concentrations and renal arsenic concentrations were detected with ICPMS; the results are shown in Table 18.

[4] = test system: thallium poisoning model rats; assay: Therapeutic effect on thallium poisoning in Wistar rats (Example 24); format: in vivo; conditions: EDTA 93.5 mg/kg, 4 weeks
Protocol: After successful molding, rats were divided to 10 rats in the blank group and the remaining 50 rats, and the grouping and administration dose are shown in Table 19. Rats in all groups were administrated once a day for 5 days/week for a total of 4 weeks.
Rats were sacrificed 24 h after administration on the last day; blood, kidney, brain and liver were taken, and thallium contents in these organs were detected by ICP-MS, and the test results are shown in Table 20.

[5] = test system: mixed chromium, cobalt, nickel and manganese poisoning model rabbits; assay: Therapeutic effect on mixed poisoning of chromium, cobalt, nickel and manganese in rabbits (Example 26); format: in vivo, New Zealand rabbits; conditions: EDTA 93.5 mg/kg, 3 days of treatment
Protocol: 40 New Zealand rabbits with a weight of 1.5˜2.0 kg were taken, and normal saline was injected intravenously at the ear margin of rabbits of the blank group for 5 days. A mixed solution containing 5 mg/ml CrCl3, 3 mg/ml CoCl2, 1 mg/ml NiCl2 and 2 mg/ml MnCl2 was injected intravenously at the ear margin of rabbits of poisoning groups with a dose of 2 ml/kg for 5 days, and observed for 25 days, thus resulting in mixed poisoning models of chromium, cobalt, nickel and manganese in New Zealand rabbits.
After successful molding, there were 8 rabbits in the blank group and 24 rabbits in mixed poisoning groups. Rabbits in all groups were given once daily for 3 days. Rabbits in the blank group and the model group were administered by intravenous dripping with normal saline, and rabbits in the treating groups were administered with a normal saline solution containing the corresponding drug. The administration volume of all groups was the same, with a dripping rate of 30 drops/min, an administration time of about 2 h, 1 time/day for 3 days; the grouping and administration dose of New Zealand rabbit in different groups were shown in Table 21. 24-hour urine was collected every day for a total of 3 days, and the total amounts of chromium, cobalt, nickel and manganese excreted through urine during the 3 days were calculated, as shown in Table 22.

Q: Which ALT [1] does the source give for N.N.[Cl][Pt][Cl] [Cisplatin, cisplatin] here?
A: 86.68 ± 26.88 U/L

Q: And the AST [1]?
A: 89.20 ± 13.66 U/L

Q: What about the CREA [1] of the same compound?
A: 470.35 ± 85.57 µmol/L

Q: O=C(O)CN(CCN(CC(=O)O)CC(=O)O)CC(=O)O [EDTA, ethylenediaminetetraacetate] was tested. Which “Blood concentration of Ca2+” value [2] did it give?
A: 89.31 ± 5.28 µg/g

Q: What about the “Blood concentration of Cu2+” value [2] of the same compound?
A: 754.21 ± 70.59 µg/g

Q: What about the “Blood concentration of Fe3+” value [2] of the same compound?
A: 194.72 ± 19.29 µg/g

Q: And the “Blood concentration of Mg2+” value [2]?
A: 43.61 ± 3.32 µg/g

Q: And the “Blood concentration of Zn2+” value [2]?
A: 2942.15 ± 176.08*^ΔΔ μg/g

Q: And the Lead in blood [2]?
A: 1218.69 ± 129.33 µg/L

Q: What about the Lead in kidney [2] of the same compound?
A: 16.54 ± 4.67 ^ μg/g

Q: What about the Lead in liver [2] of the same compound?
A: 0.47 ± 0.28 µg/g

Q: And the “Total arsenic in urine on day 1” value [3]?
A: 3.27 ± 1.84 µg

Q: And the “Total arsenic in urine on day 26” value [3]?
A: 3.18 ± 1.35 µg

Q: And the Arsenic in blood ([3]; 24 hours after the 26th day)?
A: 1362.98 ± 319.58 µg/L

Q: What about the Arsenic in kidney ([3]; 24 hours after the 26th day) of the same compound?
A: 6.08 ± 2.35 µg/g

Q: What about the Thallium in blood [4] of the same compound?
A: 836.69 ± 168.83 µg/L

Q: And the Thallium in kidney [4]?
A: 12.54 ± 4.48 µg/g

Q: What about the Thallium in liver [4] of the same compound?
A: 4.27 ± 2.18 µg/g

Q: What about the “Chromium in urine, total excreted in 3 days” value [5] of the same compound?
A: 178.48 ± 42.69 µg

Q: What about the “Cobalt in urine, total excreted in 3 days” value [5] of the same compound?
A: 162.28 ± 44.97 ^ μg

Q: And the “Manganese in urine, total excreted in 3 days” value [5]?
A: 169.52 ± 32.63 ^ μg

Q: What about the “Nickel in urine, total excreted in 3 days” value [5] of the same compound?
A: 188.28 ± 63.17 ^ μg
